In ChEMBL document CHEMBL5137003, “Recent advancement in small molecules as HCV inhibitors” (Bioorg Med Chem, 2022) one finds EC50 and IC50 data, which are given here for 29 compounds.

pEC50, pIC50: −log10 of the molar value.

The subject of test [1] is Hepatitis C virus. As to the kind of experiment: Antiviral activity against HCV GT-1b. The class given is functional, organism-based, Hepacivirus hominis. The conditions noted are these: subtype 1b.
Test [2] relates to Hepatitis C virus. As to the kind of experiment: Antiviral activity against HCV GT-3a. In kind it is functional, organism-based, Hepacivirus hominis. To be noted: subtype 3a.
The test system of test [3] is Hepatitis C virus. As to the kind of experiment: Inhibition of HCV replication in human Huh7.5 cells cultured with SGR-Neo-RLuc-JFH1-2A replicon celIs measured after 72 hrs by luciferase assay. The class given is functional, cell-based, Hepacivirus hominis. To be noted: JFH-1, Huh7.5, 72 h. On the technique in general: In antiviral work, replicon cells carry a viral genome segment that copies itself.

For test [4], the target named is RNA-directed RNA polymerase (Hepacivirus hominis, UniProt O39930). As to the kind of experiment: Inhibition of Hepatitis C virus NS5B RNA-dependent-RNA-polymerase.
The nature of test [5]: Inhibition of Hepatitis C virus NS3 protease. The arrangement: species or system Hepacivirus hominis.
The test system of test [6] is Hepatitis C virus. As to the kind of experiment: Inhibition of HCV replication in human Huh7.5 cells after 3 hrs by renilla luciferase assay. In kind it is functional, cell-based, Hepacivirus hominis. To be noted: Huh7.5, 3 h.
The test system of test [7] is Hepatitis C virus. As to the kind of experiment: Antiviral activity against HCV GT-1b infected in Huh-5-2 cells and measured after 24 hrs by luciferase assay. The class given is functional, organism-based, Hepacivirus hominis. The conditions noted are these: subtype 1b, Huh-5-2, 24 h.
In test [8] the test system is Hepatitis C virus. As to the kind of experiment: Inhibition of HCV replication. In kind it is functional, Hepacivirus hominis.
For test [9], the system named is Hepatitis C virus. As to the kind of experiment: Antiviral activity against HCV GT-3a (S52) assessed as inhibition of viral replication measured by renilla luciferase assay. The class given is functional, organism-based, Hepacivirus hominis. The conditions noted are these: subtype 3a.
The target in test [10] is T1, Hepatitis C virus serine protease, NS3/NS4A (Hepatitis C virus, UniProt A3EZI9+D2K2A8). As to the kind of experiment: Inhibition of HCV GT-3a NS3/4A protease measured by fluorescence assay. The class given is protein-complex assay, Hepacivirus hominis, subtype 3a.
Test [11] relates to Internal ribosome entry site (IRES). As to the kind of experiment: Disruption of hepatitis C virus-internal ribosome entry site (IRES) RNA base stacking interaction. The arrangement: species or system Hepacivirus hominis.
In test [12] the test system is Hepatitis C virus. As to the kind of experiment: Antiviral activity against HCV JFH-1 infected in Huh7.5.1 cells assessed as decrease in intracellular and extracellular HCV RNA level measured after 3 days by RT-qPCR assay. In kind it is functional, organism-based, Hepacivirus hominis. The conditions noted are these: JFH-1, Huh-7.5.1, 72 h. Background: Real-time PCR tracks product formation cycle by cycle.

Test [13] relates to Hepatitis C virus. As to the kind of experiment: Antiviral activity against HCV infected in Huh-7.5.1 cells assessed as inhibition of HCV production measured after 24 hrs by titration assay. The class given is functional, organism-based, Hepacivirus hominis. The conditions noted are these: Huh-7.5.1, 24 h.
Test [14] deals with T1, Hepatitis C virus serine protease, NS3/NS4A. As to the kind of experiment: Inhibition of HCV GT-1b NS3/4A protease measured by fluorescence assay. In kind it is protein-complex assay, Hepacivirus hominis, subtype 1b.
For test [15], the system named is Hepatitis C virus. As to the kind of experiment: Antiviral activity against HCV GT-4a. The conditions noted are these: subtype 4a. The class given is functional, organism-based, Hepacivirus hominis.
Test [16] concerns Hepatitis C virus. As to the kind of experiment: Antiviral activity against HCV GT-1a expressing NS5B S365A mutant variant. In kind it is functional, organism-based, Hepacivirus hominis. The conditions noted are these: subtype 1a.
For test [17], the system named is Hepatitis C virus. As to the kind of experiment: Antiviral activity against HCV GT-1a expressing NS5B C316Y mutant variant. The class given is functional, organism-based, Hepacivirus hominis. To be noted: subtype 1a.
Test [18] in a line: Inhibition of Hepatitis C virus NS3 helicase measured by DNA unwinding based assay. Set-up: species or system Hepacivirus hominis.
In test [19] the target is T1, Hepatitis C virus serine protease, NS3/NS4A. As to the kind of experiment: Inhibition of HCV GT-3a NS3/4A protease. The class given is protein-complex assay, Hepacivirus hominis, subtype 3a.
Test [20] concerns Hepatitis C virus. As to the kind of experiment: Antiviral activity against HCV assessed as inhibition of viral fusion and replication at attachment stage. In kind it is functional, organism-based, Hepacivirus hominis.
A short description of test [21]: Inhibition of Cy5-dT15 ssDNA to Hepatitis C virus subtype 1b (Con1) NS3 helicase measured by fluorescence polarization (FP) based ssDNA binding assay. Set-up: species or system Hepacivirus hominis.
Test [22] has as its system Hepatitis C virus. As to the kind of experiment: Antiviral activity against HCV JFH-1 infected in Huh7.5 cells and measured after 4 days. In kind it is functional, organism-based, Hepacivirus hominis. The conditions noted are these: JFH-1, Huh7.5, 96 h.
Test [23] deals with Hepatitis C virus. As to the kind of experiment: Inhibition of HCV replicon cells. In kind it is functional, Hepacivirus hominis.
The nature of test [24]: Inhibition of HCV GT1b full-length NS3/4A protease D168A mutant using Ac-Glu-Glu-Val-Val-Ala-Cys-AMC as substrate and measured by fluorescence based assay. Set-up: species or system Hepacivirus hominis, subtype 1b.
For test [25], the target named is T1, Hepatitis C virus serine protease, NS3/NS4A. As to the kind of experiment: Inhibition of HCV GT1b recombinant NS3/4A protease using Ac-Glu-Glu-Val-Val-Ala-Cys-AMC as substrate and measured by fluorescence based assay. In kind it is protein-complex assay, Hepacivirus hominis, subtype 1b.
The test system of test [26] is Hepatitis C virus. As to the kind of experiment: Antiviral activity against HCV GT-3a infected in Huh-5-2 cells and measured after 72 hrs by luciferase assay. To be noted: subtype 3a, Huh-5-2, 72 h. In kind it is functional, organism-based, Hepacivirus hominis.
Test [27] has as its system Hepatitis C virus. As to the kind of experiment: Antiviral activity against HCV GT-1b infected in Huh-5-2 cells and measured after 72 hrs by luciferase assay. To be noted: subtype 1b, Huh-5-2, 72 h. In kind it is functional, organism-based, Hepacivirus hominis.
Test [28] can be described thus: Inhibition of hepatitis C virus p7 ion channel. Set-up: species or system Hepacivirus hominis.

What is called pEC50 is −log10 of the EC50, conventionally taken in molar units. `CCCCOC(=O)N[C@H](C(=O)N1CCC[C@H]1C(=O)Nc1ccc(-c2ccc(NC(=O)[C@@H]3CCCN3C(=O)[C@@H](NC(=O)OCCCC)c3ccccc3)cc2)cc1)c1ccccc1` had a pEC50 in the test on Hepatitis C virus [1] of 11.17.
By pIC50 is commonly meant the IC50 on a negative log10 scale, so that one unit is a factor of ten. In turn, `COC(=O)N[C@H](C(=O)N1CCC[C@H]1c1ncc(-c2ccc(C#CC#Cc3cnc([C@@H]4CCCN4C(=O)[C@H](NC(=O)OC)c4ccccc4)[nH]3)c(-c3cccc(F)c3F)c2)[nH]1)C(C)C` showed a pIC50 with Hepatitis C virus [2] of 10.80.
`COC(=O)N[C@H](C(=O)N1CCC[C@H]1c1nc(C#CC#Cc2ccc(-c3c[nH]c([C@@H]4CCCN4C(=O)[C@@H](NC(=O)OC)C(C)C)n3)cc2)c[nH]1)C(C)C` showed a pEC50 in the test on Hepatitis C virus [2] of 8.61.
Compound `O=C(Nc1ccc(C2=NCCN2)cc1)c1cc(C(=O)Nc2ccc(C3=NCCN3)cc2)cc(C(=O)Nc2ccc(C3=NCCN3)cc2)c1` gave a negative-log IC50 (pIC50) with Hepatitis C virus [3] of 4.85.
As to `O=C(O[C@@H]1O[C@@H]2COC(=O)c3cc(O)c(O)c(O)c3-c3c(cc(O)c(O)c3O)C(=O)O[C@H]([C@H]1O)[C@@H]2O)c1cc(O)c(O)c(O)c1` [CORILAGIN], the pIC50 in test [4] was 4.70; in test [5], above 6.00.
In the case of `O=C(NCc1ccco1)c1ccc2[nH]c(COc3ccc(C45CC6CC(CC(C6)C4)C5)cc3)nc2c1`, the pEC50 with Hepatitis C virus [6] is 5.82.
`CCOC(=O)N[C@@H](CC(C)C)C(=O)N1CCC[C@H]1C(=O)Nc1cccc(C#CC#Cc2cccc(NC(=O)[C@@H]3CCCN3C(=O)[C@H](CC(C)C)NC(=O)OCC)c2)c1` gave a pEC50 in the test with Hepatitis C virus [7] of 10.40.
The compound `CCN(CC)c1ccc(Oc2ccc(-c3[nH]c4cccc(F)c4c(=O)c3C)cc2F)cc1` gave a pEC50 in the test with Hepatitis C virus [8] of 8.30.
As for `CC(C)(C)OC(=O)c1c(NC(=O)NCc2c(C(F)(F)F)sc3c2CCNC3)sc2c1CCCC2`, the pEC50 in the test with Hepatitis C virus [9] was 9.68.
As for `Cc1ccc(S(=O)(=O)Nc2ccccc2C(=O)Nc2nc3c(Cl)ccc(Cl)c3s2)cc1`, in test [10], the pIC50 is 5.80.
With `CN1CCN(CCCNc2nc3cc([N+](=O)[O-])ccc3nc2NCc2ccc(NC(=O)/C=C/c3ccc(N(C)C)cc3)cc2)CC1`, the pEC50 in test [11] is 4.17.
For `COc1ccc(N/C=C2\C(=O)N(Cc3ccccc3)c3ccccc32)cc1`, in the test on Hepatitis C virus [2], the pEC50 is 6.13.
With `Cc1cc(Oc2ccc(N)cn2)ccc1Cl`, the negative logarithm of the EC50 (pEC50) in the test on Hepatitis C virus [12] was 7.10.
As to `CC1(NCc2nnc(-c3cc(O)cc(O)c3)[nH]2)C2CC3CC(C2)CC1C3` (stereo not drawn), the pIC50 in the test on Hepatitis C virus [13] is 5.19.
In turn, `Cc1cc(NC(=O)Cc2csc(NS(=O)(=O)c3ccccc3)n2)ccc1Br` had a pIC50 in [14] of 5.66.
For `COC(=O)N[C@H](C(=O)N1CCC[C@H]1C(=O)Nc1ccc([C@@H]2CC[C@@H](c3ccc(NC(=O)[C@@H]4CCCN4C(=O)[C@@H](NC(=O)OC)C(C)C)cc3)N2c2ccc(C(C)(C)C)cc2)cc1)C(C)C` [OMBITASVIR], the pEC50 in the test on Hepatitis C virus [15] is 11.77.
As for `CNC(=O)c1c(-c2ccc(F)cc2)oc2cc(N(C)S(C)(=O)=O)c(-c3ccc4c(n3)-c3cc5c(F)cccc5n3CO4)cc12` [MK-8876], the pEC50 is 9.00 in the test with Hepatitis C virus [16] and 8.64 in the test on Hepatitis C virus [17].
`O=C1NC(=S)NC(=O)C1=Cc1cn(C(=O)c2ccc3ccccc3c2)c2ccccc12` showed a pIC50 in test [18] of 4.67.
Turning to `O=C(N[C@@H](C(=O)N1CCC[C@H]1c1ncc(-c2ccc(-c3ccc(-c4cnc([C@@H]5CCCN5C(=O)[C@H](NC(=O)C5CC5)c5ccccc5)s4)cc3)cc2)s1)c1ccccc1)C1CC1`, the pEC50 with Hepatitis C virus [1] was 11.52.
`COc1ccc2c(c1)c(C=C1C(=O)NC(=S)NC1=O)cn2C(=O)c1ccc2ccccc2c1` gave a pIC50 in test [18] of 4.67.
The compound `[2H]C([2H])([2H])Oc1cc2ccnc(O[C@@H]3C[C@H]4C(=O)N[C@]5(C(=O)NS(=O)(=O)C6(C)CC6)C[C@H]5/C=C/CC[C@@H](C)C[C@@H](CC)[C@H](NC(=O)OC(C)(C)C(F)(F)F)C(=O)N4C3)c2cc1F` had a pIC50 in [19] of 8.32.
As for `COc1ccc2cc3[n+](cc2c1OC)CCc1cc2c(cc1-3)OCO2` [BERBERINE], the pEC50 with Hepatitis C virus [20] was 5.10.
In [21], `CCCCC(O)c1cccc(=O)o1` (stereo not drawn) had a pIC50 of 5.55.
In turn, `CCC[C@H](NC(=O)[C@@H]1[C@H]2CCC[C@H]2CN1C(=O)[C@@H](NC(=O)[C@@H](NC(=O)c1cnc(C(=O)NCCOCCOCCOc2cc3c4c(cccc4c2)C(=O)N(C2CCC(=O)NC2=O)C3=O)cn1)C1CCCCC1)C(C)(C)C)C(=O)C(=O)NC1CC1` (stereo partly drawn) gave a pIC50 in the test on Hepatitis C virus [22] of 6.13.
As to `O=C(Nc1ccn([C@@H]2O[C@H](CO)[C@@H](O)C2(F)F)c(=O)n1)C1Cc2ccccc2C1`, the pIC50 in the test on Hepatitis C virus [23] was 8.00.
With `CC(C)c1ccc(NC(=O)N[C@@H](Cc2c[nH]c3ccccc23)C(=O)NCCCN2CCCCC2)cc1`, the pIC50 in test [24] is 5.22; in [25], 5.34.
As for `COc1ccc2c(c1)c(C=C1C(=O)NC(=S)NC1=O)cn2C(=O)c1cccc2ccccc12`, in test [18], the pIC50 was 4.63.
With `CCOC(=O)N[C@@H](C(=O)N1CCC[C@@H]1C(=O)Nc1ccc2c(c1)Cc1cc(NC(=O)[C@H]3CCCN3C(=O)[C@H](NC(=O)OCC)c3ccccc3)ccc1-2)c1ccccc1`, the pEC50 is 8.92 in the test on Hepatitis C virus [26] and 10.44 in the test with Hepatitis C virus [27].
On to `O=C1CCC(C23CC4CC(CC(C4)C2)C3)=NN1c1ccccc1`, for which the pIC50 in test [28] was 6.28.
